Measurements reported in the NIST ThermoML archive (doi:10.1016/j.fluid.2010.07.011).
Numbers after ± are expanded uncertainties.

Test: xn = mol fraction of the nth substance listed
Settings: 101.33 kPa, Liquid, Vibrating tube method

CCCCCCC [heptane] + CCCCCCN
x2 = 0
Settings | mass density [kg/m3]
288.15 K | 687.954 ± 0.18
293.15 K | 683.733 ± 0.18
298.15 K | 679.494 ± 0.18
303.15 K | 675.229 ± 0.18
308.15 K | 670.941 ± 0.18
313.15 K | 666.621 ± 0.18
318.15 K | 662.273 ± 0.18
323.15 K | 657.896 ± 0.19

CCCCCCN [1-hexanamine] + CCCCCCC
mass density [kg/m3]
Settings | 288.15 K | 293.15 K | 298.15 K | 303.15 K | 308.15 K | 313.15 K | 318.15 K | 323.15 K
x1 = 0.0497 | 691.084 ± 0.18 | 686.872 ± 0.18 | 682.638 ± 0.19 | 678.375 ± 0.19 | 674.087 ± 0.19 | 669.766 ± 0.19 | 665.416 ± 0.19 | 661.034 ± 0.19
x1 = 0.0712 | 692.472 ± 0.19 | 688.259 ± 0.19 | 684.023 ± 0.19 | 679.762 ± 0.19 | 675.473 ± 0.19 | 671.155 ± 0.19 | 666.804 ± 0.2 | 662.428 ± 0.2
x1 = 0.1 | 694.376 ± 0.19 | 690.164 ± 0.19 | 685.929 ± 0.19 | 681.666 ± 0.2 | 677.379 ± 0.2 | 673.063 ± 0.2 | 668.716 ± 0.2 | 664.339 ± 0.2
x1 = 0.1394 | 697.059 ± 0.2 | 692.841 ± 0.2 | 688.603 ± 0.2 | 684.341 ± 0.2 | 680.052 ± 0.2 | 675.736 ± 0.2 | 671.39 ± 0.2 | 667.016 ± 0.21
x1 = 0.2017 | 701.458 ± 0.21 | 697.235 ± 0.21 | 692.989 ± 0.21 | 688.722 ± 0.21 | 684.431 ± 0.21 | 680.114 ± 0.22 | 675.766 ± 0.22 | 671.395 ± 0.22
x1 = 0.3011 | 708.825 ± 0.24 | 704.586 ± 0.24 | 700.331 ± 0.24 | 696.055 ± 0.24 | 691.758 ± 0.24 | 687.436 ± 0.24 | 683.088 ± 0.24 | 678.716 ± 0.24
x1 = 0.4001 | 716.491 ± 0.27 | 712.241 ± 0.27 | 707.974 ± 0.27 | 703.691 ± 0.27 | 699.388 ± 0.27 | 695.063 ± 0.27 | 690.714 ± 0.27 | 686.344 ± 0.27
x1 = 0.5105 | 725.411 ± 0.31 | 721.153 ± 0.31 | 716.879 ± 0.31 | 712.593 ± 0.31 | 708.285 ± 0.31 | 703.959 ± 0.3 | 699.61 ± 0.3 | 695.241 ± 0.3
x1 = 0.5996 | 732.829 ± 0.35 | 728.568 ± 0.34 | 724.292 ± 0.34 | 720.004 ± 0.34 | 715.698 ± 0.34 | 711.371 ± 0.34 | 707.026 ± 0.34 | 702.664 ± 0.34
x1 = 0.6802 | 739.756 ± 0.39 | 735.495 ± 0.39 | 731.219 ± 0.38 | 726.929 ± 0.38 | 722.623 ± 0.38 | 718.301 ± 0.38 | 713.958 ± 0.38 | 709.598 ± 0.38
x1 = 0.7495 | 745.832 ± 0.42 | 741.569 ± 0.42 | 737.294 ± 0.42 | 733.009 ± 0.42 | 728.705 ± 0.42 | 724.386 ± 0.42 | 720.046 ± 0.41 | 715.689 ± 0.41
x1 = 0.7984 | 750.175 ± 0.45 | 745.914 ± 0.45 | 741.641 ± 0.45 | 737.357 ± 0.45 | 733.056 ± 0.45 | 728.74 ± 0.45 | 724.406 ± 0.44 | 720.058 ± 0.44
x1 = 0.8484 | 754.693 ± 0.49 | 750.434 ± 0.48 | 746.164 ± 0.48 | 741.883 ± 0.48 | 737.584 ± 0.48 | 733.272 ± 0.47 | 728.943 ± 0.47 | 724.594 ± 0.47
x1 = 0.8999 | 759.4 ± 0.52 | 755.143 ± 0.52 | 750.877 ± 0.52 | 746.597 ± 0.51 | 742.304 ± 0.51 | 737.996 ± 0.51 | 733.672 ± 0.51 | 729.332 ± 0.5
x1 = 0.9467 | 763.694 ± 0.56 | 759.441 ± 0.55 | 755.177 ± 0.55 | 750.901 ± 0.55 | 746.613 ± 0.54 | 742.31 ± 0.54 | 737.99 ± 0.54 | 733.656 ± 0.54
x1 = 1 | 768.637 ± 0.6 | 764.385 ± 0.59 | 760.128 ± 0.59 | 755.856 ± 0.59 | 751.573 ± 0.58 | 747.276 ± 0.58 | 742.962 ± 0.58 | 738.636 ± 0.57

CCCCCCN [1-hexanamine] + CCCCO
mass density [kg/m3]
Settings | 288.15 K | 293.15 K | 298.15 K | 303.15 K | 308.15 K | 313.15 K | 318.15 K | 323.15 K
x2 = 0 | 768.637 ± 0.6 | 764.385 ± 0.59 | 760.128 ± 0.59 | 755.856 ± 0.59 | 751.573 ± 0.58 | 747.276 ± 0.58 | 742.962 ± 0.58 | 738.636 ± 0.57
x2 = 0.0503 | 771.284 ± 0.56 | 767.06 ± 0.56 | 762.826 ± 0.56 | 758.576 ± 0.56 | 754.314 ± 0.55 | 750.035 ± 0.55 | 745.737 ± 0.55 | 741.427 ± 0.54
x2 = 0.1108 | 774.579 ± 0.53 | 770.381 ± 0.52 | 766.172 ± 0.52 | 761.947 ± 0.52 | 757.705 ± 0.51 | 753.444 ± 0.51 | 749.165 ± 0.51 | 744.868 ± 0.51
x2 = 0.1615 | 777.172 ± 0.49 | 772.994 ± 0.49 | 768.799 ± 0.49 | 764.593 ± 0.49 | 760.366 ± 0.48 | 756.118 ± 0.48 | 751.85 ± 0.48 | 747.565 ± 0.48
x2 = 0.2004 | 779.327 ± 0.47 | 775.161 ± 0.47 | 770.98 ± 0.47 | 766.783 ± 0.46 | 762.567 ± 0.46 | 758.331 ± 0.46 | 754.072 ± 0.46 | 749.795 ± 0.46
x2 = 0.2455 | 781.707 ± 0.44 | 777.556 ± 0.44 | 773.386 ± 0.44 | 769.201 ± 0.44 | 764.996 ± 0.43 | 760.77 ± 0.43 | 756.52 ± 0.43 | 752.247 ± 0.43
x2 = 0.3004 | 784.53 ± 0.41 | 780.391 ± 0.41 | 776.235 ± 0.41 | 772.062 ± 0.41 | 767.867 ± 0.41 | 763.651 ± 0.4 | 759.41 ± 0.4 | 755.147 ± 0.4
x2 = 0.4 | 789.735 ± 0.36 | 785.619 ± 0.36 | 781.483 ± 0.35 | 777.33 ± 0.35 | 773.155 ± 0.35 | 768.956 ± 0.35 | 764.732 ± 0.35 | 760.481 ± 0.35
x2 = 0.4802 | 793.847 ± 0.32 | 789.75 ± 0.32 | 785.637 ± 0.32 | 781.501 ± 0.32 | 777.345 ± 0.32 | 773.162 ± 0.32 | 768.953 ± 0.31 | 764.717 ± 0.31
x2 = 0.6294 | 800.788 ± 0.25 | 796.75 ± 0.25 | 792.692 ± 0.25 | 788.612 ± 0.25 | 784.508 ± 0.25 | 780.377 ± 0.25 | 776.215 ± 0.25 | 772.02 ± 0.25
x2 = 0.6999 | 803.655 ± 0.22 | 799.656 ± 0.22 | 795.637 ± 0.22 | 791.594 ± 0.23 | 787.526 ± 0.23 | 783.429 ± 0.23 | 779.299 ± 0.23 | 775.138 ± 0.23
x2 = 0.75 | 805.487 ± 0.21 | 801.517 ± 0.21 | 797.53 ± 0.21 | 793.517 ± 0.21 | 789.481 ± 0.21 | 785.41 ± 0.21 | 781.306 ± 0.21 | 777.172 ± 0.21
x2 = 0.7997 | 807.332 ± 0.19 | 803.397 ± 0.19 | 799.441 ± 0.19 | 795.46 ± 0.19 | 791.45 ± 0.19 | 787.411 ± 0.19 | 783.336 ± 0.19 | 779.228 ± 0.2
x2 = 0.8495 | 808.927 ± 0.17 | 805.024 ± 0.17 | 801.1 ± 0.18 | 797.154 ± 0.18 | 793.178 ± 0.18 | 789.169 ± 0.18 | 785.123 ± 0.18 | 781.043 ± 0.18
x2 = 0.8994 | 810.567 ± 0.16 | 806.697 ± 0.16 | 802.808 ± 0.16 | 798.893 ± 0.16 | 794.95 ± 0.17 | 790.973 ± 0.17 | 786.956 ± 0.17 | 782.9 ± 0.17
x2 = 0.9504 | 812.092 ± 0.15 | 808.261 ± 0.15 | 804.406 ± 0.15 | 800.528 ± 0.15 | 796.618 ± 0.15 | 792.674 ± 0.15 | 788.687 ± 0.15 | 784.663 ± 0.16

CCCCO [butan-1-ol] + CCCCCCN
x1 = 1
Settings | mass density [kg/m3]
288.15 K | 813.373 ± 0.14
293.15 K | 809.573 ± 0.14
298.15 K | 805.762 ± 0.14
303.15 K | 801.923 ± 0.14
308.15 K | 798.053 ± 0.14
313.15 K | 794.147 ± 0.14
318.15 K | 790.231 ± 0.14
323.15 K | 786.238 ± 0.15
